Experimental data taken from patent US20240199552A1, “AMIDE COMPOUND AND USE THEREOF” (Metisa Biotechnology Co., Ltd, priority 2021, published 2024).
Where two headings read alike, the source gives them in different places.

Tests used:
[1] = test system: Diamondback moth; assay: Insecticidal activity against Diamondback moth, Airbrush spray on cabbage leaf discs; format: in vivo; conditions: Plutella xylostella, foliar, 72 h; for mortality at 10 µg/mL: 10 mg/L, read-out: Mortality rate (%, 3 days after the administration) 10 mg/L; for mortality at 0.156 µg/mL: read-out: Mortality rate (%, 3 days after the administration) 0.156 mg/L; for mortality at 0.313 µg/mL: read-out: Mortality rate (%, 3 days after the administration) 0.313 mg/L
Experimental: (§1) After the compound to be determined was dissolved in a mixed solvent of acetone/methanol (1:1), it was diluted with water containing 0.1% (wt) Tween-80 to a desired concentration.
(§2) Mythimna separata, Diamondback moth, Chilo suppressalis, Spodoptera exigua, Myzus persicae, and Franklinella occidentalis were used as targets, and the activity was tested by an Airbrush spray method.
Determination method: cabbage leaves were formed into leaf discs having a diameter of 2 cm using a puncher, and the front and back of each leaf disc were sprayed under an Airbrush spray treatment pressure of 10 psi (approximate to 0.7 kg/cm^2) and with a spray volume of 0.5 mL. After drying in the shade, 10 3rd-instar larvae were inoculated for each treatment, and each treatment was repeated for 3 times. After the treatment, the leaf discs were placed into an observation chamber at 25° C. and with a relative humidity of 60% to 70%, and the number of living larvae was investigated 3 days after the administration of the compounds, and the mortality rates were calculated.

[2] = test system: Franklinella occidentalis; assay: Insecticidal activity against Franklinella occidentalis nymphs, sprayed bean leaves; format: in vivo
Experimental: as §1, §2
Determination method: fresh bean leaves cultivated in a greenhouse were selected, a hand-held Airbrush sprayer was used to spray uniformly, each treatment was 1 mL, and after being air-dried naturally, the leaves were placed in a finger-shaped tube. Neat and healthy Franklinella occidentalis nymphs were introduced, there were 15 nymphs for each treatment, 3 replicates were set for the experiment, and water treatment was set as a blank control. After the treatment, the leaves were put into an indoor culture room for culture at 24° C., a relative humidity of 60-70%, and natural light. After 72 h, the number of live insects was investigated and the mortality rate was calculated.

[3] = 3 days after the administration, Diamondback moth
[4] = 0.156 mg/L, 3 days after the administration, Diamondback moth
[5] = 0.313 mg/L, 3 days after the administration, Diamondback moth

Structure (SMILES): C=CCN(C(=O)c1ccccc1)c1cccc(C(=O)Nc2c(C)cc(C(F)(C(F)(F)F)C(F)(F)F)cc2C)c1 [KC1, reference compound]
- mortality at 10 µg/mL [1, 3]: 0%

Structure (SMILES): C#CCN(C(=O)c1ccccc1)c1cccc(C(=O)Nc2c(C)cc(C(F)(C(F)(F)F)C(F)(F)F)cc2C)c1 [KC2, reference compound]
- mortality at 10 µg/mL [1, 3]: 0%

Structure (SMILES): CN(C(=O)c1ccccc1)c1cccc(C(=O)Nc2c(Br)cc(C(F)(C(F)(F)F)C(F)(F)F)cc2C(F)(F)F)c1F [KC3, broflanilide, reference compound]
- mortality at 0.156 µg/mL [1]: 50%
- mortality at 0.313 µg/mL [1]: 93.3%
- Mortality rate (%, 3 days after the administration) 10 mg/L [2]: 31.11%
- Mortality rate (%, 3 days after the administration) 100 mg/L [2]: 57.78%

Structure (SMILES): CN(C(=O)c1ccc(F)cc1)c1cccc(C(=O)Nc2c(Br)cc(C(F)(C(F)(F)F)C(F)(F)F)cc2C(F)(F)F)c1F [KC4, reference compound]
- mortality at 0.156 µg/mL [1, 4]: 60%
- mortality at 0.313 µg/mL [1, 5]: 100%
- Mortality rate (%, 3 days after the administration) 10 mg/L [2]: 40.00%
- Mortality rate (%, 3 days after the administration) 100 mg/L [2]: 62.22%

Structure (SMILES): CN(C(=O)c1ccc(F)cc1)c1cccc(C(=O)Nc2c(I)cc(C(F)(C(F)(F)F)C(F)(F)F)cc2C(F)(F)F)c1F [KC5, reference compound]
- mortality at 0.156 µg/mL [1, 4]: 73.3%
- mortality at 0.313 µg/mL [1, 5]: 100%
- Mortality rate (%, 3 days after the administration) 10 mg/L [2]: 28.89%
- Mortality rate (%, 3 days after the administration) 100 mg/L [2]: 51.11%

Structure (SMILES): O=C(Nc1cccc(C(=O)Nc2c(I)cc(C(F)(C(F)(F)F)C(F)(F)F)cc2C(F)(F)F)c1F)c1ccc(F)nc1 [KC6, reference compound]
- mortality at 0.156 µg/mL [1]: 46.7%
- mortality at 0.313 µg/mL [1]: 90%
- Mortality rate (%, 3 days after the administration) 10 mg/L [2]: 57.78%
- Mortality rate (%, 3 days after the administration) 100 mg/L [2]: 77.78%

Structure (SMILES): CN(C(=O)c1ccc(F)nc1)c1cccc(C(=O)Nc2c(Br)cc(C(F)(C(F)(F)F)C(F)(F)F)cc2C(F)(F)F)c1F [KC7, reference compound]
- mortality at 0.156 µg/mL [1, 4]: 56.7%
- mortality at 0.313 µg/mL [1, 5]: 100%
- Mortality rate (%, 3 days after the administration) 10 mg/L [2]: 53.33%
- Mortality rate (%, 3 days after the administration) 100 mg/L [2]: 80.00%

Structure (SMILES): CN(C(=O)c1ccc(F)nc1)c1cccc(C(=O)Nc2c(I)cc(C(F)(C(F)(F)F)C(F)(F)F)cc2C(F)(F)F)c1F [KC8, reference compound]
- mortality at 0.156 µg/mL [1, 4]: 53.3%
- mortality at 0.313 µg/mL [1, 5]: 86.7%
- Mortality rate (%, 3 days after the administration) 10 mg/L [2]: 53.33%
- Mortality rate (%, 3 days after the administration) 100 mg/L [2]: 82.22%

Structure (SMILES): C=CCN(C(=O)c1ccccc1)c1cccc(C(=O)Nc2c(C)cc(C(F)(C(F)(F)F)C(F)(F)F)cc2C)c1F [KC9, reference compound]
- mortality at 10 µg/mL [1, 3]: 100%

Structure (SMILES): C#CCN(C(=O)c1ccccc1)c1cccc(C(=O)Nc2c(C)cc(C(F)(C(F)(F)F)C(F)(F)F)cc2C)c1F [KC10, reference compound]
- mortality at 10 µg/mL [1, 3]: 100%
